In this test the target is Purified human HSD1 (Homo sapiens, UniProt P28845). The test is described as follows: In vitro inhibition of 11β-HSD1, enzyme assay (time-resolved fluorescence). The format is biochemical. Particulars: purified human HSD1, cortisone substrate, 37° C. for 30 min. On the procedure: Purified human HSD1 was diluted in 50 mM Tris-HCl, 100 mM NaCl, 0.1 mg/mL BSA, 0.02% Lubrol, 20 mM MgCl2, 10 mM glucose 6-phosphate, 0.4 mM NADPH, 60 U/mL glucose 6-phosphate dehydrogenase to a concentration of 1.5 μg/mL (Enzyme Solution). Cortisone (100 μM) in DMSO was diluted to 1 μM with 50 mM Tris-HCl, 100 mM NaCl (Substrate Solution). Test compounds (40 μM) in DMSO were diluted 3 fold in series in DMSO and further diluted 20 fold in Substrate Solution. Enzyme Solution (10 μL/well) was added into 384 well microtiter plates followed by diluted compound solutions (10 μL/well) and mixed well. Samples were then incubated at 37° C. for 30 min. EDTA/biotin-cortisol solution (10 μL/well) in 28 mM EDTA, 100 nM biotin-cortisol, 50 mM Tris-HCl, 100 mM NaCl was then added followed by 5 μL/well of anti-cortisol antibody (3.2 μg/mL) in 50 mM Tris-HCl, 100 mM NaCl, 0.1 mg/mL BSA and the solution was incubated at 37° C. for 30 min. Five μL per well of Eu-conjugated anti-mouse IgG (16 nM) and APC-conjugated streptavidin (160 nM) in 50 mM Tris-HCl, 100 mM NaCl, 0.1 mg/mL BSA was added and the solution was incubated at room temperature for 2 hours. Signals were quantitated by reading time-resolved fluorescence on a Victor 5 reader (Wallace).
Sequence of Purified human HSD1 (P28845 whole entry): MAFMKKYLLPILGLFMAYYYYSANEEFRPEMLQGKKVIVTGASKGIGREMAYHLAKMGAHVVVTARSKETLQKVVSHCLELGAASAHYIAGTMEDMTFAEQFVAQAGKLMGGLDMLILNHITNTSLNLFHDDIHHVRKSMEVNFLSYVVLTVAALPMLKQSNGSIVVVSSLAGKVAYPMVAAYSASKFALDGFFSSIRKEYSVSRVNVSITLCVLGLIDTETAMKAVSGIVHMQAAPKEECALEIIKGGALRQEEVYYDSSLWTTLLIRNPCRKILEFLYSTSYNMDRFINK
Percent inhibition of HSD1 activity by an agent at various concentrations was calculated by the following formula: % Inhibition=100*[1−(Fs−Fb)/(Ft−Fb)], wherein: • Fs is the fluorescence signal of the sample which included the agent, • Fb is the fluorescence signal in the absence of HSD1 and agent, • Ft is the fluorescence signal in the presence of HSD1, but no agent.
The inhibitory activities of test compounds were determined by the IC50s, or the concentration of compound that gave 50% inhibition.
One may read the IC50 as the midpoint of a concentration-inhibition curve. Read a high IC50 as lower potency. Turning to `O=C(c1csc(-c2ccccc2Cl)n1)N1CCCCCCC1` [Example 10, Azocan-1-yl-[2-(2-chloro-phenyl)-thiazol-4-yl]-methanone], it took 50 nM to reach half-maximal inhibition (IC50). That is a double-digit nanomolar value.

Regarding `COc1ccc(-c2nc(C(=O)N3CCCC4CCCCC43)cs2)cc1` (stereo not drawn) [Example 17, [2-(4-Methoxy-phenyl)-thiazol-4-yl]-(octahydro-quinolin-1-yl)-methanone], half-maximal inhibition (IC50) was put at 373 nM.

Compound `Cc1ccc(-c2nc(C(=O)N3CC(C)CC(C)C3)cs2)cc1` (stereo not drawn) [Example 33, (3,5-Dimethyl-piperidin-1-yl)-(2-p-tolyl-thiazol-4-yl)-methanone] yielded an IC50 of 365 nM.

Take `CCOc1cc(Cl)ccc1-c1nc(C(=O)N2CCCC3CCCCC32)cs1` (stereo not drawn) [Example 46, [2-(4-Chloro-2-ethoxy-phenyl)-thiazol-4-yl]-(octahydro-quinolin-1-yl)-methanone]: the IC50 came out at 102 nM. Compound `O=C(c1csc(-c2cccc(OCc3ccccc3)c2)n1)N1CCCC2CCCCC21` (stereo not drawn) [Example 61, [2-(3-Benzyloxy-phenyl)-thiazol-4-yl]-(octahydro-quinolin-1-yl)-methanone] gave an IC50 of 457 nM. The value for `O=C(c1csc(-c2cccc(Cl)c2Cl)n1)N1CCCC[C@H]1c1ccccn1` [Example 96, [2-(2,3-Dichloro-phenyl)-thiazol-4-yl]-(S)-3,4,5,6-tetrahydro-2H-[2,2′]bipyridinyl-1-yl-methanone] was 40 nM; that for `C[C@@H]1CCC[C@H](C)N1C(=O)c1csc(-c2ccccc2Cl)n1` [Example 115, [2-(2-Chloro-phenyl)-thiazol-4-yl]-((2S,6R)-2,6-dimethyl-piperidin-1-yl)-methanone] was 340 nM; that for `COc1cccc(Cl)c1-c1nc(C(=O)N2CCCC3CCCCC32)cs1` (stereo not drawn) [Example 117, [2-(2-Chloro-6-methoxy-phenyl)-thiazol-4-yl]-(octahydro-quinolin-1-yl)-methanone] was 1500 nM. `COc1ccccc1-c1nc(C(=O)N2CCCCC2C)cs1` (stereo not drawn) [Example 119, [2-(2-Methoxy-phenyl)-thiazol-4-yl]-(2-methyl-piperidin-1-yl)-methanone]: the IC50 came out at 730 nM. On to `O=C(N[C@H]1CC[C@H](O)CC1)c1csc(-c2ccccc2Cl)n1` [Example 124, 2-(2-Chloro-phenyl)-thiazole-4-carboxylic acid (4-hydroxy-cyclohexyl)-amide], for which inhibition was half-maximal at 1900 nM (IC50). The value for `CC(=O)c1ccccc1-c1nc(C(=O)NC2CCCCCC2)cs1` [Example 144, 2-(2-Acetyl-phenyl)-thiazole-4-carboxylic acid cycloheptyl amide] was 32 nM; that for `O=C(c1csc(-c2ccc(-c3ccccc3)cc2)n1)N1CCCC2CCCCC21` (stereo not drawn) [Example 180, (2-Biphenyl-4-yl-thiazol-4-yl)-(octahydro-quinolin-1-yl)-methanone] was 930 nM.

The record behind these values is patent US7645773B2, “Thiazoles as inhibitors of 11β-hydroxysteroid dehydrogenase” (Hoffmann-La Roche Inc., priority 2006, dated 2010).
